In data set [1] the test system is HCMV UL54 resistant mutant D542E (HDP-CDV^R). Put plainly: microbe, parasite or virus in culture. In kind it is cell-based, Human Cytomegalovirus (HCMV).
The test system of another data set is BKV (Gardner strain). Put plainly: BKV EC50 in Vero cells (qPCR of supernatant BKV DNA). The class given is cell-based, BK virus (BKV). Conditions: Betapolyomavirus hominis. On the procedure:
Costar 96-well tissue culture plates were seeded with 10,000 Vero cells/well in DMEM containing 2% Hyclone Standard Fetal Bovine Serum (FBS, Cat 5H30088.03) and 1% Hyclone Penicillin and Streptomycin. Outer wells were not used to minimize the edge-effect produced by extended incubations. Cells were inoculated with 115 BKV DNA copies/cell (ATCC, Gardner strain). Serial dilutions of test compounds were added to the cells and plates were incubated for 10 days at 37° C. in 5% CO2. After the 10-day incubation, 50 μL supernatant was mixed with 50 μL 2× lysis buffer that provided a final concentration 0.5 mg/mL protease K, 50 mM KCl, 10 mM Tris-Cl pH 8.0, 2.5 mM MgCl2, 0.45% IGEPAL, and 0.45% Tween-20 dissolved in DEPC-treated water. Each plate was incubated for 2 hours at 55° C. Supernatant BKV DNA was measured by quantitative polymerase chain reaction (qPCR) using forward and reverse BKV PCR primers, and a FAM-labeled probe. Absolute quantitation of viral copy number was performed using a standard curve with dilutions of a BKV DNA amplicon containing sequences homologous to the amplified fragment. The following qPCR amplification conditions were used: 1 cycle at 95° C. for 10 minutes, followed by 45 cycles of 95° C. for 15 seconds and 60° C. for 60 seconds. The qPCR reactions were performed using an Applied Biosystems 7500 real Time PCR System. Gen 5 software (BioTek Instruments, Inc.) was used to calculate the concentration which inhibited the viral DNA levels of BKV-infected Vero cells by 50% (EC50).
(In general: Real-time PCR tracks product formation cycle by cycle.)

Another data set relates to HHV-8. As to the kind of experiment: HHV-8 antiviral activity in BCBL-1 cells. The class given is cell-based, human herpes virus 8 (HHV-8). The following applies: Homo sapiens, BCBL1; Virus HHV-8, cell line BCBL-1.
For the next data set, the system named is HBV. Put plainly: HBV antiviral activity in 2.2.15 cells. In kind it is cell-based. Conditions: Hepatitis B virus, cell line 2.2.15.
Data set [2] in a line: Cytotoxicity in BCBL-1 cells. The following applies: human, cell line BCBL-1 (HHV-8 row). The class given is cell-based. On the procedure: Cell viability in all assays with lymphocytes was assessed with the CellTiter-Glo Luminescent Cell Viability Assay (Promega). Briefly, assay plates were incubated at ambient temperature for 30 min then 50 µl of CellTiter-Glo reagent was added to each well and the plates were mixed for 2 min on an orbital shaker to lyse the cells. Plates were then incubated for an additional 10 min at ambient temperature and the luminescence was quantified on a luminometer. Standard methods were used to calculate drug concentrations that inhibited the proliferation of Akata, HSB-2, BCLB-1, or Molt-3 cells by 50% (CC50).

Data set [3] is described as follows: in vitro. The following applies: African green monkey.
The test system of data set [4] is Cowpox Virus (Strain Brighton). Put plainly: microbe, parasite or virus in culture. In kind it is cell-based. Conditions: Fibroblast, read-out: CPXV EC50, μM.
For another data set, the system named is Ebola. Put plainly: microbe, parasite or virus in culture. The class given is cell-based, ebola virus. Conditions: Zaire ebolavirus.
A short description of data set [5]: in vitro. Conditions: dog.
Data set [6] in a line: in vitro. Conditions: human.
Data set [7] in a line: Cytotoxicity in 2.2.15 cells. The following applies: human, cell line 2.2.15 (HBV row). The class given is cell-based.
The subject of another data set is Poliovirus 3. Put plainly: microbe, parasite or virus in culture. In kind it is cell-based. Conditions: Enterovirus C, Vero 76.
Data set [8] can be described thus: Cytotoxicity (CC50) in Vero cells. The class given is cell-based. Conditions: African green monkey, cell line Vero (BKV row). How it is done:
Costar 96-well tissue culture plates were seeded with 10,000 Vero cells (ATCC)/well in DMEM (ATCC, Cat 30-2002) containing 2% Hyclone Standard Fetal Bovine Serum (FBS, Cat 5H30088.03) and 1% Hyclone Penicillin and Streptomycin (Cat SV30010). Outer wells were not used to minimize the edge-effect produced by extended incubations. Serial dilutions of test compounds were added to the cells and plates were incubated for 7 days at 37° C. in 5% CO2. After 7 days of incubation 40 μL of Cell Titer 96® Aqueous MTS Reagent (Promega, G111) was added as directed by manufacturer to the 200 iut media in each well and incubated at 37° C. until the untreated-cell controls developed an 490 nm absorbance between 1.1 and 1.8. The final absorbance readings were read using a BioTek Synergy 2, and Gen 5 software (BioTek Instruments, Inc.) was used to calculate the concentration which inhibited Vero cells by 50% (CC50).

Like-named read-outs stand apart in the source and are kept apart here.

The values below come from patent US20170029451A1, “BRANCHED CHAIN ACYCLIC NUCLEOSIDE PHOSPHONATE ESTERS AND METHODS OF SYNTHESIS AND USES THEREOF” (CHIMERIX, INC., priority 2013, published 2017).

In general, EC50 refers to the concentration needed to bring the measured effect to its halfway point. One may read the EC90 as the concentration at which the effect reaches the 90% level.

`CC(C)CCCCCCCCCCCCCCOCCCOP(=O)(O)COC(CO)Cn1ccc(=O)[nH]c1=O` (centres unmarked) [Compound 12]: the EC50 is ~5.41 µM in data set [1] (Human betaherpesvirus 5, Fibroblast, read-out: EC50 μM, Virus D542E (HDP-CDV^R), human foreskin fibroblast cells); 1.55 µM in the data set on BKV (Gardner strain) (BKV in Vero cells (Table 7), read-out: BKV EC50); 2.1 µM in the data set with BKV (Gardner strain) (Virus BKV, cell line Vero (Table 8), read-out: EC50); < 0.08 µM in the data set on HHV-8; 3 µM in the data set with HBV; > 10 µM in [4]. Also, the EC50 with Ebola was 1 µM; in the data set on Poliovirus 3, 3.3 µM. The EC90 in data set [1] (Human betaherpesvirus 5, Fibroblast, read-out: EC90 μM) is > 10 µM. Further, in data set [1] (effect of mutations in UL54 which reduce efficacy for HDP-CDV), the “efficacy on UL54 HCMV resistant variants” value is “reduced”. The CC50 was > 10 µM in [2]; 29 µM in the data set “in vitro [3]”; 17.2 µM in “in vitro [5]”; > 20 µM in “in vitro [6]”; 36.9 µM in “in vitro [6]” (CC50 (μM)); 34 µM in data set [7]. The CC50 at 7 days in [8] was 93 µM.
